# Experimental data as given in US9714212B2, “Chemical compounds derived from normemantine and use of same in the medical field” (M2I DEVELOPMENT, priority 2013, dated 2017).
# Legend:
# [1] = Mouse study of distribution in the body; assay type: in vivo, mice C57/Black 6J
# Protocol: (§1) All the mice are the species C57/Black 6J provided by Charles River Laboratories (France) and about 8 weeks old.
# (§2) The volume administered to each mouse is defined as […] and is administered once intravenously by means of a suitable syringe and needle.
# At the prescribed time the mice are sacrificed, ground material from the organs is extracted and the concentration therein is analyzed by HPLC-MS assays.
# [2] = Toxicity after a single intravenous administration in mice; assay type: in vivo, mice C57/Black 6J; conditions: male mice, single 0.125 μg/kg intravenously
# Protocol: as §1, §2
# Solubility in water = assay type: physicochemical
# NMDA receptors [3] = test system: T1, NMDA receptors; assay: Displacement of tritiated glutamate from cerebral cortex membrane homogenate (second experiment); assay type: binding; conditions: R0 Glu
# T1 construct: Emission ratio 1st test (%); other: R0 Glu; [R1]; 1 · 10^−6 M; first test; Emission ratio 1st test (%); 1 · 10^−7 M; 1 · 10^−8 M; 1 · 10^−9 M
# From the text: (§3) In this example, the affinity of fluoroethyl normemantine for NMDA receptors will be compared with that of glutamate (Glu) and of the product Dizocilpine (called “MK-801”), which are known NMDA receptor […] (see Neuroscience Letters, Vol. 80 (1), p. 111-114). MK-801 binds to two different sites in rat brain (Brain Res. 378, p. 133).
# To that end, a material containing NMDA receptors will first be immersed in a solution containing labeled MK-801 (first experiment) or glutamate (second experiment) and then these materials are incubated in solutions containing fluoroethyl normemantine at various concentrations. Next, the radioactive emissions before and after this second incubation are compared. Lower emissions mean that fluoroethyl normemantine has a stronger affinity for NMDA receptors than that of the references and that NMDA receptors are inhibited thereby. […]
# The experimental protocol is much the same as in the first experiment: a homogenate of cerebral cortex membrane (140 μg of protein) is prepared and then incubated for 1 hour at 4° C. with 5 nM tritiated glutamate (tritiated Glu) in the absence or presence of fluoroethyl normemantine (in buffer containing 5 mM Tris-HCl (pH=7.7) and 10 mM ethyleneglycol tetraacetic acid). […] The filters are dried and their radioactivity is counted on a scintillation counter. […]
# NMDA receptors [4] = test system: T2, NMDA receptors; assay: Displacement of tritiated MK-801 from cerebral cortex membrane homogenate (first experiment); assay type: binding; conditions: for IC50: R0 MK-801, 2 hours at 37° C.
# T2 construct: Emission ratio 1st test (%); other: R0 MK-801; [R1]; 1 · 10^−5 Mol/l; first test; Emission ratio 1st test (%); 1 · 10^−6 Mol/l; 1 · 10^−7 Mol/l; 1 · 10^−8 Mol/l; Emission ratio 1
# From the text: as §3
# To that end, a material containing NMDA receptors will first be immersed in a solution containing labeled MK-801 (first experiment) or glutamate (second experiment) and then these materials are incubated in solutions containing fluoroethyl normemantine at various concentrations. Next, the radioactive emissions before and after this second incubation are compared. Lower emissions mean that fluoroethyl normemantine has a stronger affinity for NMDA receptors than that of the references and that NMDA receptors are inhibited thereby.
# By means of these measurements, a correlation can be established between the concentration of the compound IE and NMDA receptor inhibition. The magnitude of the half-maximal inhibitory concentration (IC50) is deduced therefrom.
# As the product to be tested (product R1), either memantine or compound I is used. The experimental protocol is as follows: a homogenate of cerebral cortex membrane (140 μg of proteins) is prepared and then incubated for 2 hours at 37° C. with 10 nM […] (tritiated MK-801) in the absence or presence of compound R1 (in buffer containing 5 mM HEPES/Tris (pH=7.4) and 0.1 mM ethyleneglycol tetraacetic acid). The comparison is made with an incubation of […] MK-801. The samples are quickly filtered under vacuum through glass-fiber filters and rinsed with 50 mM iced Tris-HCl. The filters are dried and their radioactivity is counted on a scintillation counter. The concentration of compound R1 varies, and by comparing for each concentration the difference in emission between the control filter (MK-801 alone) and the MK-801/R1 mixture filter, the ratio of inhibition of compound R1 for each concentration is obtained.
# [5] = Lipophilicity log(P), n-octanol / pH 7.4 buffer, HPLC; assay type: physicochemical; conditions: 50/50 by volume pH 7.4 buffer solution and octanol
# From the text: Lipophilicity: determined by log(P)=log([I]n-octanol/[I]water), by placing the compound (I) in a 50/50 mixture by volume of pH 7.4 buffer solution and octanol, separating the phases, then assaying by means of HPLC the level of the compound (I) present in each of said phases.
# [6] = mice, 0.125 μg/kg intravenously, sacrifice at 3 minutes
smiles,measurement,setting,value
NC12CC3CC(C1)CC(CCF)(C3)C2 [^18F-fluoroethyl normemantine],Brain: % of the injected dose,[1]; [6],12 % of the injected dose
same,Kidneys: share of injected dose,[1]; [6],18%
same,Liver: share of injected dose,[1]; [6],20%
same,toxicity (conclusion),[2],not toxic at the doses tested
same,solubility,Solubility in water,> 100 mM
NC12CC3CC(C1)CC(CCF)(C3)C2 [Fluoroethyl normemantine],"affinity for the brain (share in brain), comparison with prior art","[1]; comparison sentence of b89, time not restated",12%
same,ability to displace Glu,NMDA receptors [3],unable to displace Glu
same,IC50,NMDA receptors [3]; 1 hour at 4° C.,cannot be measured
same,"affinity, order of magnitude",NMDA receptors [4]; R0 MK-801,~10^−6 M
same,displacement of MK-801,NMDA receptors [4]; R0 MK-801,displaces MK-801
same,IC50,NMDA receptors [4],6.1 µM
NC12CC3CC(C1)CC(CCF)(C3)C2 [compound (I)],log(P),[5],3.1 (±0.5)
CC12CC3CC(C)(C1)CC(N)(C3)C2 [Memantine],"affinity, order of magnitude",NMDA receptors [4]; R0 MK-801,~10^−6 M
same,IC50,NMDA receptors [4],1.1 µM
same,Mean (emission ratio),"NMDA receptors [4]; R0 MK-801, [R1] 1 · 10^−5 Mol/l",10.8%
same,Mean (emission ratio),"NMDA receptors [4]; R0 MK-801, [R1] 1 · 10^−6 Mol/l",52.3%
same,Mean (emission ratio),"NMDA receptors [4]; R0 MK-801, [R1] 1 · 10^−7 Mol/l",88.8%
same,Mean (emission ratio),"NMDA receptors [4]; R0 MK-801, [R1] 1 · 10^−8 Mol/l",101.4%
same,Mean (emission ratio),"NMDA receptors [4]; R0 MK-801, [R1] 1 · 10^−9 Mol/l",96.9%
same,Mean (emission ratio),"NMDA receptors [4]; R0 MK-801, [R1] 3 · 10^−6 Mol/l",29.0%
same,Mean (emission ratio),"NMDA receptors [4]; R0 MK-801, [R1] 3 · 10^−7 Mol/l",73.1%
same,Mean (emission ratio),"NMDA receptors [4]; R0 MK-801, [R1] 3 · 10^−8 Mol/l",97.5%
same,Mean (emission ratio),"NMDA receptors [4]; R0 MK-801, [R1] 3 · 10^−9 Mol/l",103.3%
